Test results: patent US20240239790A1, “7-Morpholino-1,6-Naphthyridin-5-yl Derivatives and Pharmaceutical Compositions Thereof Useful as DNA-PK Inhibitor” (adMare Therapeutics Society, priority 2021, published 2024)
Where two headings read alike, the source gives them in different places. Marks after values point to notes of the source that are not given here.

Legend:
[1] = Pharmacokinetic study in mice (IV and PO), plasma; format: in vivo, mouse; conditions: for AUC(0-inf): read-out: AUCINF—obs; for Cmax: read-out: Cmax (5 min); for F: mouse
Protocol: Pharmacokinetic analysis of compounds was conducted following bolus intravenous (IV) or bolus oral (PO) gavage in mice. Female mice (C57BL/6) in the 17-26 g range were weighed, and then administered an individually prescribed dose volume based on body weight of formulated compound via the intravenous (IV; tail vein) or oral gavage (PO) route (IV 5 mL/kg; PO 10 mL/kg). At selected timepoints post administration, blood was collected into vials with anticoagulant, processed for plasma by centrifugation, and then kept frozen ([…]) until analysis.
The in-vivo study plasma samples were analyzed using Ultra Performance Liquid Chromatography (UPLC) with tandem mass spectrometry (MS/MS) detection in multiple reaction monitoring (MRM) mode. A generic bioanalytical method involving plasma sample extraction and cleanup by protein precipitation with acetonitrile was used followed by UPLC-MS/MS analysis.
A brief example of a generic bioanalytical UPLC-MS/MS method used for analysis of compounds in the in-vivo study plasma samples is as follows. Plasma samples were spiked with internal standard prior to extraction and cleanup by protein precipitation with ice cold acetonitrile containing 0.1% (v/v) ammonium hydroxide at a ratio of 3:1 (solvent:plasma) and centrifuged at 18213 rcf for 15 minutes at 4° C. to pellet precipitates. Aliquots of supernatants were transferred to a 96-well plate and evaporated to dryness at 40° C. under a stream of nitrogen gas. Samples were reconstituted in 50:50 acetonitrile/10 mM ammonium acetate buffer pH 8, mixed thoroughly and analyzed using Ultra Performance Liquid Chromatography (UPLC) with tandem mass spectrometry (MS/MS) detection in multiple reaction monitoring (MRM) mode. Matrix-matched calibration standards and quality control (QC) samples were prepared in naïve C57Bl/6 mouse plasma. The UPLC column used was Waters Acquity UPLC BEH C18 1.7 um, 2.1 mm×50 mm (with guard column). The UPLC mobile phase consisted of: Mobile phase A: 10 mM ammonium acetate in Water pH 8, and Mobile phase B: Acetonitrile. Separation was accomplished with a linear gradient of 5% mobile phase B to 95% mobile phase B in 2 min, and a flow rate of 0.35 mL/min. The MS/MS data acquisition was accomplished using 3 MRM Transitions in ESI+ mode. Parent ion mass 508.37 m/z-to-Daughter ions (m/z) 117.05, 232.13 and 270.22. The quantitation of concentrations in test samples was achieved by matrix-matched calibration with normalization using an internal standard. Data acquisition and analysis were performed using Waters MassLynx software with TargetLynx application manager.
Estimation of PK parameters was performed using independent noncompartmental model method by PHOENIX WinNonlin software.

FaDu tumour xenograft = test: Clonogenic Survival, FaDu tumour xenograft-bearing Rag2M mice, compound ± radiation (CS-ER); format: in vivo, mouse
Protocol: FaDu tumour xenograft-bearing Rag2M mice were treated with single administrations of test compounds at indicated doses±radiation as indicated, at time 0.
Mice were irradiated at 1 h post compound administration (unless otherwise indicated), with 300 KV X-rays and a 10 mA current from a Precision XRAD 300 machine (USA) with a beam-hardening filter (2 mm Al+0.25 mm Cu+0.75 mm Sn) and an adjustable site to specimen distance (SSD) at a dose of 8-10 Gy, delivered at a rate of ˜1.05 Gy/min.
Mice were terminated at times after irradiation as indicated, and tumour tissues excised. A portion of tumour approximately 300-500 mg was briefly minced using sterile scissors and placed in a pre-weighed gentleMACS C tube (Miltenyi Biotec cat #130-093-237) and weighed with combined tumour+tube mass recorded. A 5 mL aliquot of enzyme cocktail comprising of trypsin/DNase/collagenase/EDTA-Na2 in PBS (1 mg/ml trypsin+0.26 mg/ml DNase+0.21 mg/ml collagenase+2 mM EDTA-Na2) was added to the tube, which is then run on the gentleMACS Dissociator disaggregation system. Tubes were then incubated at 37° C. and continually rotated for 20 min before again running on the gentleMACS Dissociator program. Samples were then diluted with 5 ml MEM medium containing 5% FBS and filtered (Falcon cell strainer 100 μm, cat #352360). After centrifugation (1100 rpm for 6 minutes at 4° C.) supernatant was aspirated and the cells resuspended in 4 ml cold growth medium (MEM+10% FBS)+50 ul DNase (5 mg/ml DNase solution). Cell numbers were counted from the same cell solution using a hemacytometer. Appropriate dilutions (control: 10,000 cells/ml; 8Gy: 400,000 cells/ml; drug+radiation treated; 500,000 cells/ml) were made and cells then plated in triplicate: control: 100 μl and 300 μl (1000 and 3000 cells/6 cm tissue culture plate); 8Gy: 30 μl, 105 μl and 350 μl (12000, 42000 cells/6 cm plates and 140000 cells/10 cm plate); drug+8Gy: 70 μl, 300p, 1.2 ml (35000 and 150000 cells/6 cm plates and 600000 cells/10 cm plates—only duplicate). Plates were incubated at 37° C. (in a 5% CO2, 5% O2 and balance N2 environment) for 14 days. For a final and accurate automated live-cell counting a solution of Hoechst33342 (0.01 mg/ml)+Propidium Iodide (0.004 mg/ml) in 0.9% saline was mixed with an appropriate cell number dilution of the samples in 96 well plates (50 ul staining solution+50 ul cell suspension of 10000 cells/ml) and images are taken of the wells and cell numbers are calculated by a computer program.
After 14 days plates were removed from the incubator, rinsed with PBS and stained with cold 2 g/L Malachite green oxalate salt solution (Sigma-Aldrich, cat #M6880) for 30 minutes at room temperature. Plates were rinsed with distilled water and dried. Pictures were obtained of the plates and colonies consisting of 50 or more cells were counted using a Stuart Scientific colony counter.
All plates with colonies were analyzed except when colony numbers were so high that the edges of individual colonies could not be determined accurately. Plating efficiency (PE) of each tumour sample was calculated first: PE is a ratio of the number of colonies to the number of cells seeded (sum of all the colonies countable in all the plates of the same sample divided by the sum of cells plated in the same plates). The PE of control tumours was averaged for the calculation of surviving fraction (SF): SF is based on the number of colonies formed in drug and/or radiation treated cells relative to that of untreated control (PE of treated tumor sample divided by PE of control). All treated data points were compared separately to the average of the controls. Finally a Clonogenic Survival Enhancement Ratio (CS-ER) was calculated: the SF of irradiated control groups were divided by the SF of treatment groups to determine treatment group-specific CS-ER values, and these were assigned scores based on defined response ranges: values>6=A, 4-6=B, <4=C.

[2] = female, C57BL/6, mouse plasma, IV, 3 mg/kg
[3] = female, C57BL/6, mouse plasma, PO, 10 mg/kg
[4] = female, C57BL/6, po, mouse plasma, PC, 3 mg/kg
[5] = female, C57BL/6, mouse plasma, IV, 1 mg/kg

`O=C(COc1cnc(N[C@H]2CC[C@@H](Oc3nc(N4CCOCC4)cc4ncccc34)CC2)nc1)N1CCC1` [Compound 75, 1-(Azetidin-1-yl)-2-((2-(((1s,4s)-4-((7-morpholino-1,6-naphthyridin-5-yl)oxy)cyclohexyl)amino)pyrimidin-5-yl)oxy)ethan-1-one] showed an AUC(0-t) [1, 2] of 7960 ng·h/mL, a half-life [1, 2] of 1.67 h and an AUC(0-inf) [1, 2] of 8170 ng·h/mL. It also gave a Cmax [1, 2] of 6020 ng/mL, an AUC(0-t) [1, 3] of 18200 ng·h/mL and a half-life [1, 3] of 2.17 h. For the same compound, the AUC(0-inf) [1, 3] was 18200 ng·h/mL, the Cmax [1, 3] was 5590 ng/mL and the “AUC—% Extrap—obs” value ([1]; mouse plasma, IV, 3 mg/kg) was 2.63%. The Cl_obs ([1]; mouse plasma, IV, 3 mg/kg) was 367.01 mL/h/kg, the Vz_obs ([1]; mouse plasma, IV, 3 mg/kg) was 885.15 mL/kg and the “AUC—% Extrap—obs” value ([1]; mouse plasma, PO, 10 mg/kg) was 0.07%. The Cl_obs ([1]; mouse plasma, PO, 10 mg/kg) was 548.06 mL/h/kg, the Vz_obs ([1]; mouse plasma, PO, 10 mg/kg) was 1715.97 mL/kg and the F ([1]; PO, 10 mg/kg) was 69%. For the same compound, the “CS-ER Range Score” value (FaDu tumour xenograft; 30 mpk + 8 Gy, 2 h) was “B B (4-6=B)” and the “CS-ER Range Score” value (FaDu tumour xenograft; 30 mpk + 8 Gy, 4 h) was “B B (4-6=B)”.

With `CN1CCN(CCOc2cnc(N[C@H]3CC[C@@H](Oc4nc(N5CCOCC5)cc5ncccc45)CC3)nc2)CC1` [Compound 69, 5-(2-(4-Methylpiperazin-1-yl)ethoxy)-N-((1s,4s)-4-((7-morpholino-1,6-naphthyridin-5-yl)oxy)cyclohexyl)pyrimidin-2-amine] the AUC(0-t) [1, 2] was 1630 ng·h/mL, the half-life [1, 2] was 4.63 h and the AUC(0-inf) [1, 2] was 2270 ng·h/mL. For the same compound, the Cmax [1, 2] was 611 ng/mL, the AUC(0-t) [1, 3] was 5680 ng·h/mL and the half-life [1, 3] was 5.4 h. The AUC(0-inf) [1, 3] was 6070 ng·h/mL, the Cmax [1, 3] was 549 ng/mL and the “AUC—% Extrap—obs” value ([1]; mouse plasma, IV, 3 mg/kg) was 28.28%. For the same compound, the Cl_obs ([1]; mouse plasma, IV, 3 mg/kg) was 1321.88 mL/h/kg, the Vz_obs ([1]; mouse plasma, IV, 3 mg/kg) was 8824.88 mL/kg and the “AUC—% Extrap—obs” value ([1]; mouse plasma, PO, 10 mg/kg) was 6.56%. It also gave a Cl_obs ([1]; mouse plasma, PO, 10 mg/kg) of 1646.25 mL/h/kg, a Vz_obs ([1]; mouse plasma, PO, 10 mg/kg) of 12835.77 mL/kg and an F ([1]; PO, 10 mg/kg) of 105%. The “CS-ER Range Score” value (FaDu tumour xenograft; 30 mpk + 8 Gy, 4 h) was “C (<4=C)”.

With `CN(C)C(=O)COc1ccc(C(=O)N[C@H]2CC[C@@H](Oc3nc(N4CCOCC4)cc4ncccc34)CC2)cn1` [Compound 117, 6-(2-(dimethylamino)-2-oxoethoxy)-N-((1s,4s)-4-((7-morpholino-1,6-naphthyridin-5-yl)oxy)cyclohexyl)nicotinamide] the “CS-ER Range Score” value (FaDu tumour xenograft; 30 mpk + 8 Gy, 2 h) was “C (<4=C)” and the “CS-ER Range Score” value (FaDu tumour xenograft; 30 mpk + 8 Gy, 4 h) was “B (4-6=B)”.

For `O=S(=O)(CF)Nc1cnc2cc(N3CCOCC3)nc(O[C@H]3CC[C@@H](Nc4ncccn4)CC3)c2c1` [Compound 192, 1-fluoro-N-(7-morpholino-5-(((1s,4s)-4-(pyrimidin-2-ylamino)cyclohexyl)oxy)-1,6-naphthyridin-3-yl)methanesulfonamide], the “CS-ER Range Score” value (FaDu tumour xenograft; 30 mpk + 8 Gy, 2 h) was “A (values>6=A)” and the “CS-ER Range Score” value (FaDu tumour xenograft; 30 mpk + 8 Gy, 4 h) was “B (4-6=B)”.

Work on `CN(C)C(=O)COc1cnc(N[C@H]2CC[C@@H](Oc3nc(N4CCOCC4)cc4ncccc34)CC2)nc1` [Compound 54, N,N-Dimethyl-2-((2-(((1s,4s)-4-((7-morpholino-1,6-naphthyridin-5-yl)oxy)cyclohexyl)amino)pyrimidin-5-yl)oxy)acetamide] yielded an AUC(0-t) [1, 4] of 7650 ng·h/mL, a Cmax at 5 min [1, 4] of 2220 ng/mL and a half-life [1, 4] of 2.33 h. For the same compound, the AUC(0-inf) [1, 4] was 7660 ng·h/mL, the AUC(0-t) [1, 5] was 3700 ng·h/mL and the C0 [1, 5] was 3310 ng/mL. For the same compound, the Cmax at 5 min [1, 5] was 2820 ng/mL, the half-life [1, 5] was 1.69 h and the AUC(0-inf) [1, 5] was 3710 ng·h/mL. For the same compound, the “AUC—% Extrap—obs” value ([1]; mouse plasma, IV, 1 mg/kg) was 0.10%, the Cl_obs ([1]; mouse plasma, IV, 1 mg/kg) was 264 mL/h/kg and the Vz_obs ([1]; mouse plasma, IV, 1 mg/kg) was 646 mL/kg. For the same compound, the “AUC—% Extrap—obs” value ([1]; mouse plasma, PC, 3 mg/kg) was 0.07%, the Cl_obs ([1]; mouse plasma, PC, 3 mg/kg) was 358^b mL/h/kg and the Vz_obs ([1]; mouse plasma, PC, 3 mg/kg) was 1205^a mL/kg. For the same compound, the F ([1]; PC, 3 mg/kg) was 74%, the “CS-ER Range Score” value (FaDu tumour xenograft; 100 mpk + 10 Gy, 0.5 h) was “B (4-6=B)” and the “CS-ER Range Score” value (FaDu tumour xenograft; 100 mpk + 10 Gy, 4 h) was “A (values>6=A)”. For the same compound, the “CS-ER Range Score” value (FaDu tumour xenograft; 100 mpk + 10 Gy, 8 h) was “B (4-6=B)” and the “CS-ER Range Score” value (FaDu tumour xenograft; 100 mpk + 10 Gy, 24 h) was “A (values>6=A)”.

For `CN(C)C(=O)Cn1ccc2nc(N[C@H]3CC[C@@H](Oc4nc(N5CCOCC5)cc5ncccc45)CC3)ncc21` [Compound 86, N,N-Dimethyl-2-(2-(((1s,4s)-4-((7-morpholino-1,6-naphthyridin-5-yl)oxy)cyclohexyl)amino)-5H-pyrrolo[3,2-d]pyrimidin-5-yl)acetamide], the AUC(0-t) [1, 2] was 4100 ng·h/mL, the half-life [1, 2] was 1.77 h and the AUC(0-inf) [1, 2] was 4160 ng·h/mL. It also gave a Cmax [1, 2] of 6450 ng/mL, an AUC(0-t) [1, 3] of 2620 ng·h/mL and a half-life [1, 3] of 2.92 h. For the same compound, the AUC(0-inf) [1, 3] was 2630 ng·h/mL, the Cmax [1, 3] was 589 ng/mL and the “AUC—% Extrap—obs” value ([1]; mouse plasma, IV, 3 mg/kg) was 1.44%. For the same compound, the Cl_obs ([1]; mouse plasma, IV, 3 mg/kg) was 721.34 mL/h/kg, the Vz_obs ([1]; mouse plasma, IV, 3 mg/kg) was 1842.6 mL/kg and the “AUC—% Extrap—obs” value ([1]; mouse plasma, PO, 10 mg/kg) was 0.47%. For the same compound, the Cl_obs ([1]; mouse plasma, PO, 10 mg/kg) was 3799.7 mL/h/kg, the Vz_obs ([1]; mouse plasma, PO, 10 mg/kg) was 16019 mL/kg and the F ([1]; PO, 10 mg/kg) was 19%. For the same compound, the “CS-ER Range Score” value (FaDu tumour xenograft; 30 mpk + 8 Gy, 2 h) was “B B (4-6=B)” and the “CS-ER Range Score” value (FaDu tumour xenograft; 30 mpk + 8 Gy, 4 h) was “B B (4-6=B)”.
